Where two headings read alike, the source gives them in different places. Where a SMILES comes first, the peptide text is derived from it. Bridges are numbered along the chain shown (N, C = ends). [ ]: non-standard residue; d: D form. The star is where a group is joined. Heptanoyl(6-Me) = CC(C)CCCCC(=O)*; X1 = CC[C@H](C)CCCCC(=O)*; Octanoyl = CCCCCCCC(=O)*; Dab = NCC[C@H](N)C(=O)O
What was measured:
[1] = Serum pharmacokinetics after intravenous polymyxin B liposomes or aqueous solution (USP); assay type: in vivo, Swiss Webster mice; conditions: for AUC(0-t): n = 4, normalized by dose, read-out: AUC0-6 h
Description: (§1) The animal protocol was approved by the University of Houston Institutional Animal Care and Use Committee. The animals received food and water ad libitum. Two groups of 24 female ND4 Swiss Webster mice (20-23 g, Harlan Laboratory, Indianapolis, Ind.) were intravenously administrated PB liposomes and aqueous solution (USP), respectively, at approximately 3 mg/kg through the tail vein. At each time point (0.1, 0.5, 1, 2, 4 and 6 h post-dose), four mice were sacrificed for blood and epithelial lining fluid sample collection. The blood samples were clotted on crushed ice and the serum was obtained by centrifugation. The epithelial lining fluid samples were obtained by bronchoalveolar lavage. All the serum and epithelial lining fluid samples were stored at −80° C. until analysis.
(§2) Four major polymyxin B components in serum and epithelial lining fluid samples were assayed by a validated UPLC-MS/MS method. An Acquity UPLC HSS C18 column was used with 0.1% formic acid/acetonitrile as mobile phases. Analysis was performed in positive ionization mode with multiple reactions monitoring (MRM) scan type. Briefly, the serum and epithelial lining fluid samples (200 μl) were spiked with 20 μl of carbutamide (internal standard). Two hundred μl of 5% trichloroacetic acid was added to precipitate the proteins, followed by 1 min of vortexing. After centrifugation at 18,000× g for 15 min, the supernatant was transferred to a new tube and evaporated to dryness under a stream of nitrogen. The residue was reconstituted in 100 μl of mobile phase (acetonitrile: 0.1% formic acid=50:50) and then centrifuged at 18,000×g for 15 minutes. Ten μl of supernatant was injected into the UPLC-MS/MS for quantitative analysis. The linear concentration range was 6.5-3200 ng/ml for both serum and epithelial lining fluid samples. The intra-day and inter-day variance was less than […] for all the components in both serum and epithelial lining fluid. The concentration of drug in epithelial lining fluid (CELF) was corrected using the equation: CELF=CBALF× Ureaserum/UreaBALF, where UreaBALF and Ureaserum were the concentrations of urea in bronchoalveolar lavage fluid (BALF) and serum, respectively (18).
(§3) Concentrations of urea in serum and BALF samples were quantified with a commercially available assay kit (Quantichrom™ Urea Assay kit, BioAssay System, Hayward, Calif.) and measured on a Synergy2 microplate reader (BioTek Instrument, Winooski, Vt.). Drug exposures observed in both serum and epithelial lining fluid were normalized by the specific dose of each batch of liposomes to account for the variances among different pharmacokinetic experiments. Naïve data averaging was used; the best-fit pharmacokinetic parameters as well as drug exposure in serum and ELF were calculated by WinNonlin 3.3 (Pharsight Corporation, Mountain View, Calif.) using a one-compartment model and non-compartmental analysis, respectively. Statistical differences between liposome and aqueous solution were determined by Mann-Whitney test at the significance level of p≤0.05.

[2] = Epithelial lining fluid (ELF) pharmacokinetics after intravenous polymyxin B liposomes or aqueous solution (USP); assay type: in vivo, Swiss Webster mice; conditions: for AUC(0-t): female, ND4 Swiss Webster, n = 4, read-out: AUC0-6 h, epithelial lining fluid
Description: as §1, §2, §3

[3] = Kidney exposure after IV polymyxin liposome or solution (USP); assay type: in vivo, mice; conditions: for AUC(0-t) / AUC0-6 h, kidney: female, ND4 Swiss Webster
Lrp2/megalin = assay: Urinary excretion of megalin after maleate administration (ELISA); assay type: in vivo; conditions: rats, single 400 mg/kg intraperitoneal dose
Description: Three rats were housed individually in separate metabolic cages 24 h prior to maleate pretreatment. A single dose of 400 mg/kg of sodium maleate was given intraperitoneally; this was previously reported to induce reversible ultrastructural modifications in the apical brush border membrane of proximal renal tubules (34). To study megalin urinary excretion, cumulative urine was collected daily from day −1 to day 15. The urine samples were spun down to remove particulate matter. Subsequently, the urine samples were aliquoted and stored at −80° C. prior to analysis. The samples were thawed, and urinary Lrp2/megalin concentrations were quantitatively measured using a commercially available ELISA kit for megalin. For each animal, the daily megalin concentrations were expressed as a normalized ratio to the baseline megalin value.

proximal tubules = assay: Electron microscopy of maleate-treated kidney sections; assay type: in vivo; conditions: rats
Description: For morphological studies, one animal was sacrificed at 3 h and another at 14 days after maleate administration to collect the kidneys. The harvested kidneys were submitted for electron microscopic studies. Tissue samples from both renal cortical and medullary regions were fixed in 2% glutaraldehyde at 4° C. overnight, followed by additional fixation in osmium tetroxide. The renal tissue was dehydrated and embedded in epoxy resin. Approximately 1-μm pilot sections were stained with toluidine for selection of the areas for further ultrastructural examination. Thin sections of these selected areas were cut and subjected to examination under a JEOL 300 electron microscope at 80 kV. The kidneys from two naive rats were harvested, processed in a similar fashion, and used as controls.

[4] = female, ND4 Swiss Webster, mouse, in vivo, iv
[5] = mouse, in vivo, iv, 3 mg/kg, AUC0-6 h, kidney

Compound	half-life [1, 4]	T1/2 (elimination half-life) ([1]; mouse, in vivo, iv)	time post-dose up to which the component could be quantified in ELF ([2]; mouse, in vivo, iv)	AUC ratio (liposome:solution), epithelial lining fluid ([2]; mouse, in vivo, iv, 3 mg/kg)	AUC0-6 h, kidney ([3]; mouse, in vivo, iv, 3 mg/kg)	AUC(0-t) [3, 5]	AUC ratio (liposome:solution), kidney ([3]; mouse, in vivo, iv, 3 mg/kg)	further results
CC[C@H](C)CCCCC(=O)N[C@@H](CCN)C(=O)N[C@H](C(=O)N[C@@H](CCN)C(=O)N[C@H]1CCNC(=O)[C@H]([C@@H](C)O)NC(=O)[C@H](CCN)NC(=O)[C@H](CCN)NC(=O)[C@H](CC(C)C)NC(=O)[C@@H](Cc2ccccc2)NC(=O)[C@H](CCN)NC1=O)[C@@H](C)O [PB1, polymyxin B1] (X1-[Dab]T[Dab][Dab][Dab][dF]L[Dab][Dab]T; lactam 4-C)	–	–	–	–	–	–	–	half-life ([1]; female, ND4 Swiss Webster, mouse, in vivo, 3 mg/kg, serum, mice, IV polymyxin B liposomes, one-compartment model, read-out: T1/2 (elimination half-life) (converted)): 36 min; AUC(0-t) ([1]; female, ND4 Swiss Webster, mouse, in vivo, iv, 3 mg/kg, serum, mice, IV polymyxin B liposomes approx. 3 mg/kg): 4770 ng·h/mL; AUC(0-t) ([1]; female, ND4 Swiss Webster, mouse, in vivo, iv, 3 mg/kg, serum, mice, IV polymyxin B solution (USP) approx. 3 mg/kg): 2760 ng·h/mL; total clearance ([1]; mice, IV aqueous solution approx. 3 mg/kg): 1.4±0.5 I/h/kg; total clearance ([1]; mice, IV liposomal formulation approx. 3 mg/kg): 0.6±0.3 I/h/kg; AUC ratio (liposome:solution), epithelial lining fluid ([2]; ELF, mice, IV 3 mg/kg): 6.21; AUC(0-t) ([2]; mouse, in vivo, iv, 3 mg/kg, ELF, mice, IV 3 mg/kg polymyxin liposome): 9750 ng·h/mL; AUC(0-t) ([2]; mouse, in vivo, iv, 3 mg/kg, ELF, mice, IV 3 mg/kg polymyxin solution (USP)): 1570 ng·h/mL; AUC(0-t) ([3]; mouse, in vivo, iv, 3 mg/kg, kidney, mice, IV 3 mg/kg polymyxin liposome, n = 24, read-out: AUC0-6 h, kidney): 28400 ng·h/mL; AUC(0-t) ([3]; mouse, in vivo, iv, 3 mg/kg, kidney, mice, IV 3 mg/kg polymyxin solution (USP), n = 24, read-out: AUC0-6 h, kidney): 34200 ng·h/mL; AUC ratio (liposome:solution), kidney ([3]; kidney, mice, IV 3 mg/kg): 0.83
CC[C@H](C)CCCCC(=O)N[C@@H](CCN)C(=O)N[C@H](C(=O)N[C@@H](CCN)C(=O)N[C@H]1CCNC(=O)[C@H]([C@@H](C)O)NC(=O)[C@H](CCN)NC(=O)[C@H](CCN)NC(=O)[C@H]([C@@H](C)CC)NC(=O)[C@@H](Cc2ccccc2)NC(=O)[C@H](CCN)NC1=O)[C@@H](C)O [ile-PB1, isoleucine polymyxin B1] (X1-[Dab]T[Dab][Dab][Dab][dF]I[Dab][Dab]T; lactam 4-C)	25.2 min	17.4 min	up to 4 h	4.55	4980 ng·h/mL	4160 ng·h/mL	0.84	–
O=C([O-])/C=C\C(=O)[O-].[Na+].[Na+] [maleate, Sodium maleate dibasic salt]	–	–	–	–	–	–	–	elevation in the level of urinary megalin (Lrp2/megalin): approximately 20 times the baseline measurement; time until urinary megalin levels reverted to baseline (Lrp2/megalin): approximately 11 days; electron microscopic findings in kidney (proximal tubules; two weeks after 400 mg/kg intraperitoneally): no significant changes; electron microscopic findings in kidney (proximal tubules; within 3 h after 400 mg/kg intraperitoneally): morphological and ultrastructural changes in the proximal tubules

More lines, main results first:

half-life [1, 4]	T1/2 (elimination half-life) ([1]; mouse, in vivo, iv)	time post-dose up to which the component could be quantified in ELF ([2]; mouse, in vivo, iv)	AUC ratio (liposome:solution), epithelial lining fluid ([2]; mouse, in vivo, iv, 3 mg/kg)	AUC0-6 h, kidney ([3]; mouse, in vivo, iv, 3 mg/kg)	AUC(0-t) [3, 5]	AUC ratio (liposome:solution), kidney ([3]; mouse, in vivo, iv, 3 mg/kg)	Compound	further results
26.4 min	12.6 min	up to 2 h	11.10	12240 ng·h/mL	9440 ng·h/mL	0.77	CC(C)CCCCC(=O)N[C@@H](CCN)C(=O)N[C@H](C(=O)N[C@@H](CCN)C(=O)N[C@H]1CCNC(=O)[C@H]([C@@H](C)O)NC(=O)[C@H](CCN)NC(=O)[C@H](CCN)NC(=O)[C@H](CC(C)C)NC(=O)[C@@H](Cc2ccccc2)NC(=O)[C@H](CCN)NC1=O)[C@@H](C)O [PB2, polymyxin B2] ({Heptanoyl(6-Me)}-[Dab]T[Dab][Dab][Dab][dF]L[Dab][Dab]T; lactam 4-C (inferred))	clearance [1, 4]: 5.14 mL/min/kg; Cl (clearance) ([1]; mouse, in vivo, iv): 14.998 mL/min/kg; Vss (volume of distribution at steady state) ([1]; mouse, in vivo, iv): 0.27474 L/kg
18 min	16.8 min	up to 2 h	4.92	–	–	0.37	CCCCCCCC(=O)N[C@@H](CCN)C(=O)N[C@H](C(=O)N[C@@H](CCN)C(=O)N[C@H]1CCNC(=O)[C@H]([C@@H](C)O)NC(=O)[C@H](CCN)NC(=O)[C@H](CCN)NC(=O)[C@H](CC(C)C)NC(=O)[C@@H](Cc2ccccc2)NC(=O)[C@H](CCN)NC1=O)[C@@H](C)O [PB3, polymyxin B3] (Octanoyl-[Dab]T[Dab][Dab][Dab][dF]L[Dab][Dab]T; lactam 4-C)	–

— US10092515B2, “Liposomal formulations of polymyxin B and uses thereof” (University of Houston System, priority 2012, dated 2018)
